# According to publication PMC10128108 (RSC Advances, 2023):
# “Also recorded” adds a separate entry of the source.
# Experiments:
# [1] = molecular target: c-Met kinase (Homo sapiens, UniProt P08581); assay: c-Met kinase inhibitory assay
# [2] = system: HepG-2 liver cancer cell line; assay: MTT antiproliferative assay, HepG-2; conditions: for IC50: Homo sapiens, HepG2, read-out: IC50 against HepG-2; for SI (selectivity index), HepG-2: relative to normal WI-38 cells
# [3] = system: MCF-7 breast cancer cell line; assay: MTT antiproliferative assay, MCF-7; conditions: for IC50: Homo sapiens, MCF7, read-out: IC50 against MCF-7; for SI (selectivity index), MCF-7: relative to normal WI-38 cells
# [4] = system: HCT-116 colorectal cancer cell line; assay: MTT antiproliferative assay, HCT-116; conditions: for IC50: Homo sapiens, HCT-116, read-out: IC50 against HCT-116; for SI (selectivity index), HCT-116: relative to normal WI-38 cells
# [5] = system: human lung fibroblasts (WI-38) normal cells; assay: MTT cytotoxicity assay, normal WI-38 cells; type: cell-based; conditions: WI-38, read-out: IC50 against WI-38
# [6] = system: caspase-3; assay: Caspase-3 level, ELISA in HepG-2; type: cell-based, human; conditions: for Casp-3: HepG-2, 24 h, 5a at 3.42 μM
# [7] = system: Bcl-2; assay: Bcl-2 level, ELISA in HepG-2; type: cell-based, human; conditions: for Bcl-2: HepG-2, 24 h, 5a at 3.42 μM
# [8] = system: Bax; assay: Bax level, ELISA in HepG-2; type: cell-based, human; conditions: for Bax: HepG-2, 24 h, 5a at 3.42 μM; for Bax/Bcl-2: ratio of the two levels, HepG-2
# [9] = system: HepG-2 cells; assay: Cell cycle analysis; type: cell-based, human; conditions: 24 h
# [10] = system: HepG-2 cells; assay: Annexin V-FITC/PI apoptosis assay; type: cell-based, human
# [11] = system: p53; assay: p53 level, ELISA in HepG-2; type: cell-based, human
# [12] = HepG-2, IC50 concentration (3.42 μM)
# [13] = with respect to untreated HepG-2 cells
# Chain of c-Met kinase (P08581 25-1390): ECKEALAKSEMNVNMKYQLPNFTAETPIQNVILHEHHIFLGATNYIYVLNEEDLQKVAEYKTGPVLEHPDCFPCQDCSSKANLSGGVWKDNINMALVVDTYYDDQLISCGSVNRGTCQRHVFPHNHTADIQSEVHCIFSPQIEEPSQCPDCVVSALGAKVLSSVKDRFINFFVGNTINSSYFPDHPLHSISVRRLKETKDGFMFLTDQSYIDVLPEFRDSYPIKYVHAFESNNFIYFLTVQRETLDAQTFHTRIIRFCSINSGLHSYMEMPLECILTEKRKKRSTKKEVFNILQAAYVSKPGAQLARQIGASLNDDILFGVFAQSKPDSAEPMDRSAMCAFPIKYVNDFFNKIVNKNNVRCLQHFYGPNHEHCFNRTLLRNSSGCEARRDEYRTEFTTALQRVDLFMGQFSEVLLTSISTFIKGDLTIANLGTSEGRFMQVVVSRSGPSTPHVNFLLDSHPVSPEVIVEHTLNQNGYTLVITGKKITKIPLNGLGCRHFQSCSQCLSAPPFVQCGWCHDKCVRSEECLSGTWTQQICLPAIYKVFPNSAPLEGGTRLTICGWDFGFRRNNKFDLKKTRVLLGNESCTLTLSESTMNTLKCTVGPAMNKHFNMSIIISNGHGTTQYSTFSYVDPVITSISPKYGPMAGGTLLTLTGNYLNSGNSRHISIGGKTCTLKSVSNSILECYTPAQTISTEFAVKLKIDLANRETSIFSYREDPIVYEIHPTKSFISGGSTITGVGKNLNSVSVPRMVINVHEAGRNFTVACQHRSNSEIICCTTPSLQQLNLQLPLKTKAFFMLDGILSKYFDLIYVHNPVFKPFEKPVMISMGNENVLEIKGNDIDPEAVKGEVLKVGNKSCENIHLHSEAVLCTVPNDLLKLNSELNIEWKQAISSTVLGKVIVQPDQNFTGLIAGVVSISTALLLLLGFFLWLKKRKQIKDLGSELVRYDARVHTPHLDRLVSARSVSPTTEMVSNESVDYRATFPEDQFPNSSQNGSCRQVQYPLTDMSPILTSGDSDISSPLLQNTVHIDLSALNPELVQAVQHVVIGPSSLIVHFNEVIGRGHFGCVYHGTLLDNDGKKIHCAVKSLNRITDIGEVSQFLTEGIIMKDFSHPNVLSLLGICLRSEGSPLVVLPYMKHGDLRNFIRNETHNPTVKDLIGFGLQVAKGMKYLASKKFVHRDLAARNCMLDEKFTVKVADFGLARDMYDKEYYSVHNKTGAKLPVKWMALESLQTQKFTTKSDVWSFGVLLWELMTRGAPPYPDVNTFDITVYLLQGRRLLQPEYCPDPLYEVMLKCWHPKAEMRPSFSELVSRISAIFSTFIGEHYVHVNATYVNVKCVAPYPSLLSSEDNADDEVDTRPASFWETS
compound,measurement,setting,value
"Cc1ccc(S(=O)(=O)n2nc(C)c3c(-c4ccc(Cl)cc4)c(C#N)c(=S)[nH]c32)cc1 [Compound 5b, 4-(4-Chlorophenyl)-3-methyl-6-thioxo-1-tosyl-6,7-dihydro-1H-pyrazolo[3,4-b]pyridine-5-carbonitrile]",IC50,[1],0.00795 ± 0.00017 µM
same,IC50,[2],3.56 ± 1.5 µM
same,fold more potent than erlotinib against HepG-2,[2]; ratio of IC50 values,approximately 2.4 fold
same,"SI (selectivity index), HepG-2",[2],23.90
same,IC50,[3],6.82 ± 1.1 µM
same,"SI (selectivity index), MCF-7",[3],12.47
same,IC50,[4],9.21 ± 0.02 µM
same,"SI (selectivity index), HCT-116",[4],9.23
same,IC50,[5],85.1 ± 0.32 µM
"C#Cc1cccc(Nc2ncnc3cc(OCCOC)c(OCCOC)cc23)c1 [Erlotinib, reference compound]",Casp-3,[6],58.41 ± 0.12 ng/mL
same,Bcl-2,[7],1.69 ± 0.10 ng/mL
same,IC50,[5],70 ± 1.08 µM
same,Bax,[8],200.20 ± 0.25 pg/mL
same,Bax/Bcl-2,[8],118.84
"Cc1ccc(S(=O)(=O)n2nc(C)c3c(-c4ccc(Cl)cc4)c4c(N)c(C#N)sc4nc32)cc1 [Compound 8c, 5-Amino-4-(4-chlorophenyl)-3-methyl-1-tosyl-1H-pyrazolo[3,4-b]thieno[3,2-e]pyridine-6-carbonitrile]",IC50,[2],25.4 ± 0.5 µM
same,IC50,[3],36.25 ± 0.13 µM
same,IC50,[4],41.77 ± 0.4 µM
"CCOC(=O)c1sc2nc3c(c(C)nn3S(=O)(=O)c3ccc(C)cc3)c(-c3ccc(Cl)cc3)c2c1N [Compound 8d, Ethyl 5-amino-4-(4-chlorophenyl)-3-methyl-1-tosyl-1H-pyrazolo[3,4-b]thieno[3,2-e]pyridine-6-carboxylate]",IC50,[2],23.12 ± 0.08 µM
same,IC50,[3],32.14 ± 0.19 µM
same,IC50,[4],38.11 ± 0.3 µM
"Cc1ccc(S(=O)(=O)n2nc(C)c3c(-c4ccc(Cl)cc4)c4c(N)c(C(=O)O)sc4nc32)cc1 [Compound 8f, 5-Amino-4-(4-chlorophenyl)-3-methyl-1-tosyl-1H-pyrazolo[3,4-b]thieno[3,2-e]pyridine-6-carboxylic acid]",IC50,[2],15.4 ± 0.3 µM
same,IC50,[3],19.3 ± 0.45 µM
same,IC50,[4],18.86 ± 0.12 µM
"Cc1ccc(S(=O)(=O)n2nc(C)c3c(-c4ccccc4)c(C#N)c(=S)[nH]c32)cc1 [Compound 5a, 3-Methyl-4-phenyl-6-thioxo-1-tosyl-6,7-dihydro-1H-pyrazolo[3,4-b]pyridine-5-carbonitrile]",cell cycle arrest phase,"[9]; HepG-2, 3.42 μM",arrested the cell cycle at the G1/S phase; also recorded: cell cycle arrest at the G1/S phase
same,percentage of cells in G0–G1 phase,[9]; [12],51.93%
same,percentage of cells in G2/M phase,[9]; [12],3.89%
same,percentage of cells in S phase,[9]; [12],44.18%
same,IC50,[1],0.00427 ± 0.00031 µM
same,Casp-3,[6],42.60 ± 0.10 ng/mL
same,fold upregulation of caspase-3,[6]; vs untreated HepG-2 cells,23.8 folds
same,IC50,[2],3.42 ± 1.31 µM
same,fold more potent than erlotinib against HepG-2,[2]; ratio of IC50 values,approximately 2.4 fold
same,"SI (selectivity index), HepG-2",[2],23.52
same,Apoptosis Early,"[10]; HepG-2, 3.42 μM, 24 h",24.63%
same,Apoptosis Late,"[10]; HepG-2, 3.42 μM, 24 h",16.28%
same,Necrosis,"[10]; HepG-2, 3.42 μM, 24 h",6.24%
same,fold increase of early apoptotic cells,[10]; [13],about 63 folds
same,fold increase of late apoptotic cells,[10]; [13],~116 folds
same,IC50,[3],5.25 ± 1.04 µM
same,"SI (selectivity index), MCF-7",[3],15.32
same,IC50,[4],6.27 ± 1.15 µM
same,"SI (selectivity index), HCT-116",[4],12.83
same,p53,"[11]; HepG-2, 24 h, 5a at 3.42 μM",825.22 ± 0.40 pg/mL
same,fold upregulation of p53,[11]; vs untreated HepG-2 cells,6.9 folds
same,Bcl-2,[7],2.09 ± 0.15 ng/mL
same,fold reduction of Bcl-2 level,[7]; vs untreated HepG-2 cells,~3.9 folds
same,IC50,[5],80.46 ± 0.33 µM
same,Bax,[8],211.40 ± 0.25 pg/mL
same,Bax/Bcl-2,[8],101.14
same,fold increase of Bax level,[8]; vs untreated HepG-2 cells,~5.4 folds
same,fold increase of Bax/Bcl-2 ratio,[8]; vs untreated HepG-2 cells,21 times
"CC(=O)c1sc2nc3c(c(C)nn3S(=O)(=O)c3ccc(C)cc3)c(-c3ccccc3)c2c1N [Compound 8b, 1-(5-Amino-3-methyl-4-phenyl-1-tosyl-1H-pyrazolo[3,4-b]thieno[3,2-e]pyridin-6-yl)ethan-1-one]",IC50,[2],52.1 ± 0.71 µM
same,IC50,[3],60.23 ± 0.17 µM
same,IC50,[4],67.84 ± 0.02 µM
"Cc1ccc(S(=O)(=O)n2nc(C)c3sc(=S)n(-c4ccccc4)c32)cc1 [Compound 10b, 3-Methyl-6-phenyl-1-tosyl-1H-pyrazolo[3,4-d]thiazole-5(6H)-thione]",IC50,[2],6.75 ± 0.62 µM
same,fold less potent than 5-FU against HepG-2,[2]; ratio of IC50 values,2.3 fold
same,"SI (selectivity index), HepG-2",[2],12.65
same,IC50,[3],8.13 ± 0.4 µM
same,"SI (selectivity index), MCF-7",[3],10.50
same,IC50,[4],9.36 ± 0.45 µM
same,"SI (selectivity index), HCT-116",[4],9.12
same,IC50,[5],85.41 ± 0.51 µM
"Cc1ccc(S(=O)(=O)n2nc(C)c3c(-c4ccccc4)c4c(N)c(C(N)=O)sc4nc32)cc1 [Compound 8a, 5-Amino-3-methyl-4-phenyl-1-tosyl-1H-pyrazolo[3,4-b]thieno[3,2-e]pyridine-6-carboxamide]",IC50,[2],30.58 ± 0.01 µM
same,IC50,[3],43.02 ± 0.24 µM
same,IC50,[4],47.38 ± 0.11 µM
"O=c1[nH]cc(F)c(=O)[nH]1 [5-Fluorouracil, reference compound]",IC50,[2],2.87 ± 0.15 µM
same,"SI (selectivity index), HepG-2",[2],27.77
same,IC50,[3],3.58 ± 0.45 µM
same,"SI (selectivity index), MCF-7",[3],22.26
same,IC50,[4],5.26 ± 0.31 µM
same,"SI (selectivity index), HCT-116",[4],15.15
same,IC50,[5],79.7 ± 0.64 µM
"CC(=O)c1sc2nc3c(c(C)nn3S(=O)(=O)c3ccc(C)cc3)c(-c3ccc(Cl)cc3)c2c1N [Compound 8e, 1-(5-Amino-4-(4-chlorophenyl)-3-methyl-1-tosyl-1H-pyrazolo[3,4-b]thieno[3,2-e]pyridin-6-yl)ethan-1-one]",IC50,[2],12.31 ± 0.1 µM
same,IC50,[3],14.2 ± 0.33 µM
same,IC50,[4],18.2 ± 0.62 µM
"Cc1ccc(S(=O)(=O)n2nc(C)c3sc(=S)n(C)c32)cc1 [Compound 10a, 3,6-Dimethyl-1-tosyl-1,6-dihydro-5H-pyrazolo[3,4-d]thiazole-5-thione]",IC50,[2],10.2 ± 0.15 µM
same,IC50,[3],13.7 ± 0.7 µM
same,IC50,[4],17.2 ± 0.37 µM
